According to patent US20240301319A1, “PERFUMING COMPOSITIONS” (FIRMNICH SA, priority 2017, published 2024):
Each block holds one molecule with its values, some of them ahead of it.

How the values were obtained:
[1] = Odor threshold and odor value of perfuming compounds (Tables 4 to 10)
[2] = Volatility of perfuming compounds (Tables 4 to 10), with top/middle/bottom note type; assay type: physicochemical
How it was run: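 Volatility is expressed in μg/l in air. Top notes are 70,000 to 100 μg/l, middle notes 99 to 50 μg/l, and bottom notes 49 to 0.1 μg/l. Compounds are grouped by olfactive family: watery, green, fruity, citrus, sweet, gourmand and woody.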

[3] = Table 6, perfuming compounds having a fruity note
[4] = Table 8, perfuming compounds having a sweet note
[5] = Table 6, perfuming compounds having a fruity note, note type by volatility
[6] = Table 8, perfuming compounds having a sweet note, note type by volatility
[7] = Table 9, perfuming compounds having a gourmand note, note type by volatility
[8] = Table 7, citrus note, equals volatility divided by odor threshold
[9] = Table 7, citrus note, top, middle or bottom note
[10] = Table 10, perfuming compounds having a woody note, note type by volatility
[11] = perfuming compounds having a green note
[12] = Table 4, watery note, equals volatility divided by odor threshold
[13] = Table 4, watery note, top, middle or bottom note

Volatility [2, 4]: 15.81 μg/l air | Type [2, 6]: Bottom | Volatility ([2]; Table 9, gourmand note): 15.81 μg/l air | Type [2, 7]: Bottom
SMILES: CCC(=O)/C=C/C1=C(C)CCCC1(C)C
Odor Threshold [1, 4]: 1.16E−04 μg/l air | Odor Value [1, 4]: 1.37E+05 | Odor Threshold ([1]; Table 9, gourmand note): 1.16E−04 μg/l air

Volatility [2, 3]: 64.15 μg/l air | Type [2, 5]: Middle | Type ([2]; note type (Top/Middle/Bottom) by volatility, perfuming compounds having a green note): Middle | Volatility (μg/l air) [2, 11]: 64.15 μg/l air
SMILES: CC/C=C(\C)C(O)CCCCC (racemic) [(+−)-(E)-4-METHYL-3-DECEN-5-OL]
Odor Threshold [1, 3]: 6.78E−04 μg/l air | Odor Value [1, 3]: 9.46E+04 | Odor Threshold (μg/l air) [1, 11]: 6.78E−04 μg/l air

Type [2, 10]: Bottom | Volatility ([2]; Table 10, woody note): 1.71 μg/l air
SMILES: CCCCC[C@@H]1C(=O)CC[C@@H]1CC(=O)OC
Odor Threshold ([1]; Table 10, woody note): 2.82E−04 μg/l air

Volatility ([2]; Table 9, gourmand note): 128.04 μg/l air | Type [2, 7]: Top
SMILES: CCC(CC(C)CC)=NO (centres unmarked) [5-METHYL-3-HEPTANONEOXIME]
Odor Threshold ([1]; Table 9, gourmand note): 8.80E−03 μg/l air

Volatility (μg/l air) ([2]; Table 7, citrus note): 691.34 μg/l air | Type [2, 9]: Top
SMILES: CCCCC/C=C/CCC=O [(E)-4-DECENAL]
Odor Threshold (μg/l air) ([1]; Table 7, citrus note): 7.59E−05 μg/l air | Odor Value [1, 8]: 9.11E+06

Volatility (μg/l air) ([2]; Table 4, watery note): 178.29 μg/l air
SMILES: CCCCCCCCCCC=O [undecanal]
Odor Threshold (μg/l air) ([1]; Table 4, watery note): 1.65E−03 μg/l air | Odor Value [1, 12]: 1.08E+05 | Type [2, 13]: TOP (perfuming compounds having a volatility ranging from 70,000 to 100 μg/l in air are referred to as “top notes”)

Volatility [2, 3]: 0.68 μg/l air | Type [2, 5]: Bottom | Volatility (μg/l air) ([2]; Table 7, citrus note): 0.68 μg/l air | Type [2, 9]: Bottom
SMILES: CCCCC/C(C=O)=C\c1ccccc1 [(E)-2-PENTYL-3-PHENYL-2-PROPENAL]
Odor Threshold [1, 3]: 3.64E−04 μg/l air | Odor Value [1, 3]: 1.87E+03 | Odor Threshold (μg/l air) ([1]; Table 7, citrus note): 3.64E−04 μg/l air | Odor Value [1, 8]: 1.87E+03

Further lines, the molecule ahead of its results:

SMILES: CC1=CC[C@H](C(C)CC2CCCC2=O)CC1 (some centres unmarked)
Odor Threshold [1, 3]: 1.66E−04 μg/l air | Odor Value [1, 3]: 1.24E+04 | Odor Threshold [1, 4]: 1.66E−04 μg/l air | Odor Value [1, 4]: 1.24E+04 | Odor Threshold ([1]; Table 9, gourmand note): 1.66E−04 μg/l air | Volatility [2, 3]: 2.05 μg/l air | Type [2, 5]: Bottom | Volatility [2, 4]: 2.05 μg/l air | Type [2, 6]: Bottom | Volatility ([2]; Table 9, gourmand note): 2.05 μg/l air | Type [2, 7]: Bottom

SMILES: O=C1CCCCCCC/C=C/CCCCCCO1 [(10E)-oxacycloheptadec-10-en-2-one]
Odor Threshold [1, 3]: 4.77E−04 μg/l air | Odor Value [1, 3]: 1.55E+03 | Odor Threshold (μg/l air) ([1]; Table 7, citrus note): 4.77E−04 μg/l air | Odor Value [1, 8]: 1.55E+03 | Volatility [2, 3]: 0.74 μg/l air | Type [2, 5]: Bottom | Volatility (μg/l air) ([2]; Table 7, citrus note): 0.74 μg/l air | Type [2, 9]: Bottom

SMILES: CC1=CCC(CCC(C)C(C)O)C1(C)C (racemic)
Odor Threshold ([1]; Table 10, woody note): 1.52E−03 μg/l air | Type [2, 10]: Bottom | Volatility ([2]; Table 10, woody note): 5.22 μg/l air

SMILES: CC(=O)OC(C)CCC=C(C)CCC=C(C)C (centres unmarked) [1,5,9-TRIMETHYL-4,8-DECADIENYL ACETATE]
Odor Threshold (μg/l air) ([1]; Table 4, watery note): 3.28E−04 μg/l air | Odor Value [1, 12]: 4.49E+04 | Odor Threshold [1, 3]: 3.28E−04 μg/l air | Odor Value [1, 3]: 4.49E+04 | Volatility (μg/l air) ([2]; Table 4, watery note): 14.74 μg/l air | Type [2, 13]: bottom (perfuming compounds having a volatility ranging from 49 to 0.1 μg/l in air are referred to as “bottom notes”) | Volatility [2, 3]: 14.74 μg/l air | Type [2, 5]: Bottom

SMILES: CC(C=O)Cc1ccc2c(c1)OCO2 (racemic) [(+−)-3-(1,3-BENZODIOXOL-5-YL)-2-METHYLPROPANAL]
Odor Threshold (μg/l air) ([1]; Table 4, watery note): 2.23E−04 μg/l air | Odor Value [1, 12]: 1.60E+04 | Volatility (μg/l air) ([2]; Table 4, watery note): 3.57 μg/l air | Type [2, 13]: bottom (perfuming compounds having a volatility ranging from 49 to 0.1 μg/l in air are referred to as “bottom notes”)

SMILES: CC1=CCC(/C=C/C(C)C(C)O)C1(C)C (centres unmarked)
Odor Threshold ([1]; Table 10, woody note): 9.56E−05 μg/l air | Type [2, 10]: Bottom | Volatility ([2]; Table 10, woody note): 20.41 μg/l air

SMILES: C[C@@H]1CC[C@H]2C(C)(C)[C@H]3C[C@@]12C[C@@H]1OC(C)(C)O[C@@]13C
Odor Threshold ([1]; Table 10, woody note): 3.90E−06 μg/l air | Type [2, 10]: Bottom | Volatility ([2]; Table 10, woody note): 0.00 μg/l air

SMILES: Cc1ncsc1CCO [2-(4-METHYL-1,3-THIAZOL-5-YL)-1-ETHANOL]
Odor Threshold [1, 4]: 2.43E−04 μg/l air | Odor Value [1, 4]: 9.71E+03 | Volatility [2, 4]: 2.36 μg/l air | Type [2, 6]: Bottom
